These results are taken from ChEMBL document CHEMBL4118050, “Gardenifolins A-H, Scalemic Neolignans from Gardenia ternifolia: Chiral Resolution, Configurational Assignment, and Cytotoxic Activities against the HeLa Cancer Cell Line” (J Nat Prod, 2017).

Calls of active or inactive are those of the source. The rule behind the calls is not given here.

What all share (assay type): functional, cell-based
The subject of assay [1] is HeLa. The assay is described as follows: Induction of apoptosis in human HeLa cells assessed as loss of cytoplasmic and nuclear integrity at 25 uM after 72 hrs by acridine orange/Hoechst 33342 staining based microscopic method.
The test system of assay [2] is HeLa. The assay can be described thus: Cytotoxicity against human HeLa cells assessed as reduction in cell viability after 72 hrs by WST8 assay. For orientation: Formazan colour is commonly taken as a measure of viable cells.
Assay [3] concerns HeLa. The assay is described as follows: Induction of apoptosis in human HeLa cells assessed as nuclear fragmentation at 25 uM after 72 hrs by acridine orange/Hoechst 33342 staining based microscopic method.

As usually defined, the IC50 is the concentration at which inhibition is half-maximal.

For the compound `COC(=O)/C=C/c1cc(OC)c2c(c1)[C@@H](CO)[C@H](c1ccc(O)c(OC)c1)O2`, the outcome in the assay on HeLa [1] and in the assay with HeLa [3] was Active. In the assay on HeLa [2], the IC50 was found to be 21 µM.
On to `COC(=O)/C=C/c1cc(OC)c2c(c1)[C@@H](CO)[C@@H](c1ccc(O)c(OC)c1)O2`, for which, in the assay with HeLa [2], the IC50 is 105 µM.
Take `COC(=O)/C=C/c1cc(OC)c2c(c1)[C@H](CO)[C@H](c1ccc(O)c(OC)c1)O2`: the concentration for half-maximal inhibition (IC50) with HeLa [2] is 96.1 µM.
Same read-out and setting: with `COC(=O)/C=C\c1cc(OC)c2c(c1)[C@H](CO)[C@@H](c1ccc(O)c(OC)c1)O2` the figure was 78.8 µM; with `COC(=O)/C=C\c1cc(OC)c2c(c1)[C@@H](CO)[C@@H](c1ccc(O)c(OC)c1)O2`, 32.5 µM.
Same read-out and setting: next, `COC(=O)/C=C/c1cc(OC)c2c(c1)[C@H](CO)[C@@H](c1ccc(O)c(OC)c1)O2`: 90 µM; `O=c1[nH]cc(F)c(=O)[nH]1` [FLUOROURACIL]: 13.9 µM; `COC(=O)/C=C\c1cc(OC)c2c(c1)[C@H](CO)[C@H](c1ccc(O)c(OC)c1)O2`: 103 µM.
Regarding `COC(=O)/C=C\c1cc(OC)c2c(c1)[C@@H](CO)[C@H](c1ccc(O)c(OC)c1)O2`, the IC50 in the assay on HeLa [2] turned out to be 87.3 µM.
